What was measured:
[1] = biological target: T1, porcine pancreatic lipase (Sus scrofa, UniProt P00591); assay: Lipase inhibitory activity assay (4-MUO fluorescent substrate); assay type: biochemical; settings: for IC50: porcine pancreatic lipase, 4-MUO substrate, 25° C., 30 minutes, pH 8.0
T1 construct: purchased Sigma
T1 sequence (P00591 1-450): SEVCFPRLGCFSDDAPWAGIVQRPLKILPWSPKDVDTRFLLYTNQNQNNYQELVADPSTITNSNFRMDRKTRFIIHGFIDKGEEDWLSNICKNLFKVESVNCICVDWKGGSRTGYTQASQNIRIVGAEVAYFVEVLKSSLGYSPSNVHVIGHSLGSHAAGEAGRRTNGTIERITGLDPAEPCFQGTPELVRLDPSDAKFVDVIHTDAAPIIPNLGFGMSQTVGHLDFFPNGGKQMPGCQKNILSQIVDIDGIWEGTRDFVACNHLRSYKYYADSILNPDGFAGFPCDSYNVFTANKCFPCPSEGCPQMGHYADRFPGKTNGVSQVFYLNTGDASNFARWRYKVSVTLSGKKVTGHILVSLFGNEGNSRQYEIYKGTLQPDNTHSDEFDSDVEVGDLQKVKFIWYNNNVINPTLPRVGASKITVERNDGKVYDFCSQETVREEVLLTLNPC
Description: A lipase activity assay was performed by using the oleate ester of fluorescent 4-methylumbelliferone (4-MUO) as a substrate to measure the fluorescence of 4-methylumbelliferone produced by reaction.
The buffer used for the assay was 13 mM Tris-HCl (pH 8.0) containing 150 mM NaCl, 1.36 mM CaCl2. The enzyme assay was performed using a 0.1 M solution of the substrate 4-MUO (Sigma) in DMSO diluted 1:1000 in said buffer and a solution of porcine pancreatic lipase (Sigma) prepared at 400 U/ml also in said buffer.
An enzymatic reaction was started by adding 25 μl of the lipase/buffer solution after 50 μl of the 4-MUO/buffer solution and 25 μl of distilled water (or an aqueous solution of each sample) were added and mixed in a 96-well microplate at 25° C. After the reaction was performed for 30 minutes, the reaction was stopped by adding 100 μl of a 0.1 M citrate buffer (pH 4.2) and the fluorescence of 4-methylumbelliferone produced by the reaction (excitation 355 nm, emission 460 nm) was measured using a fluorescence plate reader (Fluoroskan Asent CF from Labsystems).
The inhibitory activity of each test sample was determined as IC50(μM), i.e. the amount of the sample giving 50% inhibition of the activity of the control (distilled water).

[2] = reported in the literature; cited from earlier work

Row | Compound | IC50 [1] | adverse side effects [2] | lipase inhibitory activity (in words) ([1]; method of Example 1)
1 | O=C(O[C@@H]1Cc2c(O)cc(O)cc2O[C@@H]1c1cc(O)c(O)c(O)c1-c1c([C@H]2Oc3cc(O)cc(O)c3C[C@H]2O)cc(O)c(O)c1O)c1cc(O)c(O)c(O)c1 [theasinensin B (12), theasinensin B] | 276 nM |  | 
2 | O=C(O[C@@H]1Cc2c(O)cc(O)cc2O[C@@H]1c1ccc(O)c(O)c1)c1cc(O)c(O)c(O)c1 [(−)-epicatechin 3-O-gallate (2), (−)-epicatechin 3-O-gallate] | 271 nM |  | 
3 | O=C(O[C@@H]1Cc2c(O)cc(O)cc2O[C@@H]1c1cc(O)c(O)c(O)c1-c1c([C@H]2Oc3cc(O)cc(O)c3C[C@H]2OC(=O)c2cc(O)c(O)c(O)c2)cc(O)c(O)c1O)c1cc(O)c(O)c(O)c1 [theasinensin A (11), theasinensin A] | 142 nM |  | 
4 | O=C(O[C@@H]1Cc2c(O)cc(O)cc2O[C@@H]1c1cc(O)c(O)c(O)c1-c1c([C@H]2Oc3cc(O)cc(O)c3C[C@H]2OC(=O)c2cc(O)c(O)c(O)c2)cc(O)c(O)c1O)c1cc(O)c(O)c(O)c1 [theasinensin D (13), theasinensin D] | 98 nM |  | 
5 | Oc1cc(O)c2c(c1)O[C@H](c1ccc(O)c(O)c1)[C@H](O)C2 [(−)-epicatechin (1), (−)-epicatechin] | > 21600 nM |  | 
6 | CCCCCCCCCCC[C@@H](C[C@@H]1OC(=O)[C@H]1CCCCCC)OC(=O)[C@H](CC(C)C)NC=O [Xenical] |  | fatty stools, increased stool frequency, loose stools, diarrhea and abdominal pain | 
7 | O=C(OC1Cc2c(O)cc(O)c(C(c3cc(O)c(O)c(O)c3)C(Cc3c(O)cc(O)cc3O)OC(=O)c3cc(O)c(O)c(O)c3)c2OC1c1cc(O)c(O)c(O)c1)c1cc(O)c(O)c(O)c1 (stereo not drawn) [assamicain A (9), assamicain A] | 120 nM |  | 
8 | O=C(O[C@@H]1Cc2c(O)cc(O)cc2O[C@H]1c1cc(O)c(O)c(O)c1)c1cc(O)c(O)c(O)c1 [(−)-gallocatechin 3-O-gallate (8), (−)-gallocatechin 3-O-gallate] | 349 nM |  | 
9 | O=C(OC1Cc2c(O)cc(O)c(C(c3cc(O)c(O)c(O)c3)C(Cc3c(O)cc(O)cc3O)OC(=O)c3cc(O)c(O)c(O)c3)c2OC1c1cc(O)c(O)c(O)c1)c1cc(O)c(O)c(O)c1 (stereo not drawn) [assamicain B (10), assamicain B] | 186 nM |  | 
10 | Oc1cc(O)c2c(c1)OC(c1ccc(O)c(O)c1)C(O)C2 (single isomer, unassigned; (+)) [(+)-catechin (5), (+)-catechin] | > 690000 nM |  | 
11 | Oc1cc(O)c2c(c1)O[C@H](c1cc(O)c(O)c(O)c1)[C@H](O)C2 [(−)-epigallocatechin (3), (−)-epigallocatechin] | > 20400 nM |  | 
12 | Oc1cc(O)c2c(c1)O[C@H](c1cc(O)c(O)c(O)c1)[C@@H](O)C2 [(+)-gallocatechin (7), (+)-gallocatechin] | > 163000 nM |  | 
13 | O=c1c(O)cc([C@H]2Oc3cc(O)cc(O)c3C[C@H]2O)cc2c([C@H]3Oc4cc(O)cc(O)c4C[C@H]3O)cc(O)c(O)c12 [theaflavin (15), theaflavin] | 106 nM |  | 
14 | (−)-epigallocatechin 3-O-gallate [(−)-epigallocatechin 3-O-gallate (4)] | 284 nM |  | strongest activity among the major catechins
15 | O=C(O[C@@H]1Cc2c(O)cc(O)cc2O[C@@H]1c1cc(O)c(O)c2c(=O)c(O)cc([C@H]3Oc4cc(O)cc(O)c4C[C@H]3O)cc12)c1cc(O)c(O)c(O)c1 [theaflavin 3′-O-gallate (16), theaflavin 3′-O-gallate] | 112 nM |  | 
16 | OC1(c2ccc(Cl)cc2)c2ccccc2C2=NCCN21 (stereo not drawn) [Mazindol] |  | dry mouth, constipation, stomach discomfort and nausea/vomiting | 
17 | O=C1C=C2c3c(cc(O)c4c3O[C@H](c3ccc(O)c(O)c3)[C@@H](O)C4)OC23C[C@]1(O)O[C@H]1Cc2c(O)cc(O)cc2O[C@@H]13 [dehydro-dicatechin A (14), dehydro-dicatechin A] | 3090 nM |  | 

From patent US8668921B2, “Lipase inhibitors” (Suntory Holdings Limited, priority 2004, dated 2014)
